Measured values reported in PubChem BioAssay (NCI).
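Values below derive from 48-hour exposures of cells grown in 96-well plates, with endpoints linearly interpolated between the two concentrations bracketing the appropriate inhibition level. GI50 is the concentration that inhibits growth by half. At the TGI there is no net growth.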

Legend:
Assay in all cases: NCI-60 cell line screen, 48 h
A549 NSCLC = system: A549 NSCLC
BT-549 breast = system: BT-549 breast
COLO 205 colon = system: COLO 205 colon
OVCAR-4 ovarian = system: OVCAR-4 ovarian
OVCAR-5 ovarian = system: OVCAR-5 ovarian
SF-268 CNS = system: SF-268 CNS
SF-295 CNS = system: SF-295 CNS
TK-10 renal = system: TK-10 renal
U251 CNS = system: U251 CNS
UACC-62 melanoma = system: UACC-62 melanoma

Row | Compound | TGI (A549 NSCLC) [µM] | TGI (BT-549 breast) [µM] | GI50 (COLO 205 colon) [µM] | TGI (COLO 205 colon) [µM] | TGI (OVCAR-4 ovarian) [µM] | GI50 (OVCAR-5 ovarian) [µM] | TGI (OVCAR-5 ovarian) [µM] | TGI (SF-268 CNS) [µM] | GI50 (SF-295 CNS) [µM] | TGI (SF-295 CNS) [µM] | TGI (TK-10 renal) [µM] | TGI (U251 CNS) [µM] | TGI (UACC-62 melanoma) [µM] | GI50 (TK-10 renal) [µM] | GI50 (UACC-62 melanoma) [µM]
1 | CC1(C)CCC2=C(O1)c1ccccc1C(=Nc1ccc([N+](=O)[O-])cc1)C2=O | 30 | 44 | 16.8 | 30.4 | 38.7 | 14.5 | 28.2 | > 100 | 14.9 | 29.9 | 32.6 | 28.9 | 30.9 |  | 
2 | NS(=O)(=O)c1ccc(-c2ccc([As](=O)(O)O)cc2)cc1 | > 100 | > 100 |  | > 100 | > 100 |  | > 100 | > 100 |  | > 100 | > 100 | > 100 | > 100 |  | 
3 | CCSC12OC3(CCCCCN3C1=O)C1C(=O)N(c3ccccc3)C(=O)C12 (stereo not given) | > 100 | > 100 |  | > 100 | > 100 |  | > 100 | > 100 |  | > 100 | > 100 | > 100 | > 100 |  | 
4 | Clc1nc2nc(N3CCNCC3)nc(N3CCCC3)c2[nH]1 | 33.1 | 89.8 |  | 31 | 35 |  | 44.3 | 40.4 |  | 38.2 | > 100 | 31.8 | 31.8 |  | 
5 | COc1ccc(NC(=O)CSC(=O)c2ccccc2)c(SCCSSCCSc2cc(OC)ccc2NC(=O)CSC(=O)c2ccccc2)c1 | > 100 | > 100 |  | 24.2 | 83.7 |  | > 100 | > 100 |  | > 100 | > 100 | > 100 | > 100 |  | 
6 | COc1cc(C(c2ccccc2)N2C(=O)CC[C@H]2C(=O)O)cc(OC)c1OC (stereo not given in full) | > 100 | > 100 |  | > 100 | > 100 |  | > 100 | > 100 |  | > 100 | > 100 | > 100 | > 100 |  | 
7 | Cc1cnc2c(c1)C(=O)N(c1ccc(Oc3ccccc3)cc1)S2(=O)=O | > 100 | > 100 |  | > 100 | > 100 |  | > 100 | > 100 |  | > 100 | > 100 | > 100 | > 100 |  | 
8 | N=C(N)SCc1nc(-c2ccc(Cl)cc2)no1 | > 100 | 50.6 |  | 38.3 | 29.1 |  | 27.8 | > 100 |  | > 100 | 40.8 | 78.8 | 24.4 |  | 
9 | CC(=O)NC1C(OCc2ccccc2)OC(CO)C(O)C1OC(C)C(=O)NC(C(=O)NC(CCC(=O)NCCCNc1ccc([N+](=O)[O-])c2[nH]c3ccccc3c(=O)c12)C(N)=O)C(C)C (stereo not given) | > 100 | > 100 |  | > 100 | > 100 |  | > 100 | > 100 |  | > 100 | > 100 | > 100 | > 100 |  | 
10 | O=S(=O)(O)c1ccc(O)c(N=Nc2c(O)ccc3ccccc23)c1 | > 100 | > 100 |  | > 100 | > 100 |  | > 100 | > 100 |  | > 100 | > 100 | > 100 | > 100 |  | 
11 | CCC[N+](C)(C)CCCNC(=O)c1c(O)c2ccccc2[nH]c1=O | > 100 | > 100 |  | > 100 | > 100 |  | > 100 | > 100 |  | > 100 | > 100 | > 100 | > 100 |  | 
12 | CCOc1ccc2c(c1)C(/C(C(Cl)=C(Cl)Cl)=[N+](/[O-])OC(=O)c1ccccc1)=N2 | > 100 | 97.8 |  | > 100 | > 100 |  | > 100 | > 100 |  | > 100 | > 100 | > 100 | > 100 |  | 
13 | COC(=O)C1=C(C)NC(C)=C(C(=O)OC)C1c1cccc(/[N+]([O-])=C/c2ccccc2)c1 | > 100 | 30.3 |  | 30.5 | 30.2 |  | > 100 | > 100 |  | > 100 | > 100 | > 100 | > 100 |  | 
14 | C=C1c2c(n(S(=O)(=O)c3ccccc3)c3ccccc23)[C@@]2(C(=O)OC)CC3C=CC2N1C3 | > 100 | > 100 |  | > 100 | > 100 |  | > 100 | > 100 |  | > 100 | > 100 | > 100 | > 100 |  | 
15 | COc1cc2nc(-c3cccs3)nc(N3CCN(c4ccccc4)CC3)c2cc1OC | > 100 | > 100 |  | > 100 | > 100 |  | > 100 | > 100 |  | > 100 | > 100 | > 100 | > 100 |  | 
16 | COC1(OC)CC(CO)(COc2cc(Cl)nc(N)n2)C1 | > 100 | > 100 |  | > 100 | > 100 |  | > 100 | > 100 |  | > 100 | > 100 | > 100 | > 100 |  | 
17 | O=C(CCCCCNC(=O)c1ccc(Cl)cc1)NO | 81.9 | > 100 |  | 10.5 | > 100 |  | 8.43 | 57.1 |  | 36.1 | 16.4 | 24 | 12.1 |  | 
18 | CCOC(=O)Cc1[nH]c(C(=O)c2ccccc2)cc1C(=O)c1ccccc1 | 66.8 | 38.7 |  | 48.7 | 59.8 |  | > 10 | > 100 |  | > 10 | > 100 | > 100 | > 100 |  | 
19 | CSc1nnnc2ccccc12 | > 100 | > 100 |  | > 100 | > 100 |  | > 100 | > 100 |  | > 100 | > 100 | > 100 | > 100 |  | 

Row | Compound | TGI (A549 NSCLC) [µM] | TGI (BT-549 breast) [µM] | GI50 (COLO 205 colon) [µM] | TGI (COLO 205 colon) [µM] | TGI (OVCAR-4 ovarian) [µM] | GI50 (OVCAR-5 ovarian) [µM] | TGI (OVCAR-5 ovarian) [µM] | TGI (SF-268 CNS) [µM] | GI50 (SF-295 CNS) [µM] | TGI (SF-295 CNS) [µM] | TGI (TK-10 renal) [µM] | TGI (U251 CNS) [µM] | TGI (UACC-62 melanoma) [µM] | GI50 (TK-10 renal) [µM] | GI50 (UACC-62 melanoma) [µM]
20 | CC1CN(c2cc3c(cc2F)c(=O)c(C(=O)O)cn3-c2ccc(N3CCN(C)CC3)cn2)CC(C)N1 (stereo not given) | > 100 | > 100 |  | > 100 | > 100 |  | > 100 | > 100 |  | > 100 | > 100 | > 100 | > 100 |  | 
21 | O=C(O)C(Cc1ccccc1)Cc1ccccc1 | > 100 | > 100 |  | > 100 | > 100 |  | > 100 | > 100 |  | > 100 | > 100 | > 100 | > 100 |  | 
22 | C1=CC2C(C3CN(c4ccccc4)N=C13)C1C3C4C=CC21C=CC43 (stereo not given) | > 100 | > 100 |  | > 100 | > 100 |  | > 100 | > 100 |  | > 100 | > 100 | > 100 | > 100 |  | 
23 | Cc1ccc(/C=c2\c(=O)[nH]c3nc4ccccc4c(=O)n23)cc1 | > 100 | 60.3 |  | 42.2 | > 100 |  | > 100 | > 100 |  | > 100 | > 100 | 38 | > 100 |  | 
24 | NS(=O)(=O)c1nnc(NS(=O)(=O)c2cccc3cccnc23)s1 | > 100 | > 100 |  | > 100 | > 100 |  | > 100 | > 100 |  | > 100 | > 100 | > 100 | > 100 |  | 
25 | O=C1C(c2ccccc2)=C(c2ccccc2)C1(Cl)Cl | 27.4 | 6.99 |  | 6.4 | 11.4 |  | 20.8 | 12.7 |  | 28.7 | 2.81 | 7.68 | 4.13 |  | 
26 | CCn1c(CCCc2nc3c([nH]2)c(=O)n(C)c(=O)n3C)nc2c1c(=O)n(C)c(=O)n2C | > 100 | > 100 |  | 27 | > 100 |  | > 100 | > 100 |  | > 100 | > 100 | > 100 | > 100 |  | 
27 | CCOC(=O)c1nc2ccccc2nc1Nc1ccc(C(=O)OC)s1 | > 100 | > 100 |  | > 100 | > 100 |  | > 100 | > 100 |  | > 100 | > 100 | > 100 | > 100 |  | 
28 | CC1(C)C2CC3C(C)(C2)C31c1cc(Cl)ccc1N (stereo not given) | 24.2 | 30 |  | 33.2 | 28.6 |  | 29.4 | 28.3 |  | 28.6 | 29.1 | 28.5 | 29.1 |  | 
29 | [N-]=[N+]=Nc1cc(=O)[nH]c2ccccc12 | > 100 | > 100 |  | > 100 | > 100 |  | > 100 | > 100 |  | > 100 | > 100 | > 100 | > 100 |  | 
30 | Cc1cc(N(CCC#N)CCC#N)ccc1/C(N=Nc1ccc(C(=O)O)cc1)=N\NC(=O)c1ccccc1 | > 100 | > 100 |  | > 100 | > 100 |  | > 100 | > 100 |  | > 100 | > 100 | > 100 | > 100 |  | 
31 | NC(=Nc1ccccc1)N/N=C/c1c[nH]c2ccccc12 | 15.4 | 16.9 |  | 0.67 | 15 |  | 15 | 15 |  | 0.423 | 18.9 | 2.61 | 6.84 |  | 
32 | Cc1cc2nc3c(C#N)c(C)c(CCCl)c(Cl)n3c2cc1C | 17.7 | 7.15 |  | 14.8 | 16.6 |  | 5.86 | 3.76 |  | 13.8 | 4.24 | > 60.9 | 4.12 |  | 
33 | CCOP(=O)(OCC)/C(=C/n1c(=S)[nH]c2ccccc21)C(=O)OC | > 100 | > 100 |  | > 100 | > 100 |  | > 100 | > 100 |  | > 100 | > 100 | > 100 | > 100 | > 100 | 
34 | c1ccc2c(c1)nnn2C1CCCCO1 (stereo not given) | > 100 | > 100 |  | > 100 | > 100 |  | > 100 | > 100 |  | > 100 | > 100 | > 100 | > 100 |  | 
35 | CC(C)OC1=C(CC2(C)OCCO2)C(=O)C12OCCO2 | > 100 | > 100 |  | > 100 | > 100 |  | > 100 | > 100 |  | > 100 | > 100 | > 100 | > 100 |  | 
36 | CC1(C)CCCCCC(O)C(O)CCC(C)(C)C1=O (stereo not given) | > 100 | > 100 |  | > 100 | > 100 |  | > 100 | > 100 |  | > 100 | > 100 | > 100 | > 100 |  | 
37 | COc1cc2c3c(n(C)c(=O)c2cc1OC)-c1cc2c(cc1/C3=C\CCCCl)OCO2 | > 100 | > 100 |  | > 100 | > 100 |  | > 100 | > 100 |  | 99.2 | 37.3 | > 100 | > 100 |  | 33.3
38 | N=C1C=CC(=C(c2ccc(N)cc2)c2ccc(N)cc2)C=C1 | 32.1 | 7.97 |  | 5.83 | 52.4 |  | 50.3 | 14.9 |  | 21.4 | 28.1 | 22.6 | 15.3 |  | 
